Test results as given in patent US20240251792A1, “WEED CONTROL METHOD” (SYNGENTA CROP PROTECTION AG, priority 2021, published 2024).

Experiments:
Assay type in all cases: in vivo
Conditions in all cases: 1000 g/ha, after 12 days
[1] = test system: AMARE; test: Biological efficacy, post-emergence glasshouse test (Table 2)
Experimental: (§1) Seeds of a variety of test species were shown in unsterilised compost in small pots. After cultivation for one day (pre-emergence) or seven days (post-emergence) in controlled conditions in the glasshouse (at 24/16° C., day/night; 14 hours light; 65% humidity) the plants were sprayed with 1 mg of the active ingredient, formulated in 466 μl of a acetone/water/Tween 20 (49.75:49.75:0.5) solution, which is equivalent to 1000 g/ha. Once the foliage was dry, the pots were kept in the glasshouse (at 24/16° C., day/night; 14 hours light; 65% humidity), and were watered twice daily. After 12 days the test was evaluated and scored (100=total damage to plant, 0=no damage to plant).

[2] = test system: DIGSA; test: as above
Experimental: as §1

[3] = test system: LOLPE; test: as above
Experimental: as §1

[4] = test system: STEME; test: as above
Experimental: as §1

[5] = test system: AMARE; test: Biological efficacy, pre-emergence glasshouse test (Table 2)
Experimental: as §1

[6] = test system: DIGSA; test: as above
Experimental: as §1

[7] = test system: LOLPE; test: as above
Experimental: as §1

[8] = test system: STEME; test: as above
Experimental: as §1

O=C(O)C(F)(F)c1ccc(OC(F)F)cc1F [Compound 1-32]
score (100=total damage to plant, 0=no damage to plant) [1]: 30 | score (100=total damage to plant, 0=no damage to plant) [2]: 0 | score (100=total damage to plant, 0=no damage to plant) [3]: 0 | score (100=total damage to plant, 0=no damage to plant) [4]: 40 | score (100=total damage to plant, 0=no damage to plant) [5]: 0 | score (100=total damage to plant, 0=no damage to plant) [6]: 0 | score (100=total damage to plant, 0=no damage to plant) [7]: 0 | score (100=total damage to plant, 0=no damage to plant) [8]: 0

CCc1ccccc1C(F)(F)C(=O)O [Compound 1-263]
score (100=total damage to plant, 0=no damage to plant) [1]: 50 | score (100=total damage to plant, 0=no damage to plant) [2]: 0 | score (100=total damage to plant, 0=no damage to plant) [3]: 0 | score (100=total damage to plant, 0=no damage to plant) [4]: 50 | score (100=total damage to plant, 0=no damage to plant) [5]: 40 | score (100=total damage to plant, 0=no damage to plant) [6]: 0 | score (100=total damage to plant, 0=no damage to plant) [7]: 0 | score (100=total damage to plant, 0=no damage to plant) [8]: 0

Nc1cccc(C(F)(F)C(=O)O)c1 [Compound 1-8, 2-(3-Aminophenyl)-2,2-difluoro-acetic acid]
score (100=total damage to plant, 0=no damage to plant) [1]: 10 | score (100=total damage to plant, 0=no damage to plant) [2]: 0 | score (100=total damage to plant, 0=no damage to plant) [3]: 0 | score (100=total damage to plant, 0=no damage to plant) [4]: 10 | score (100=total damage to plant, 0=no damage to plant) [5]: 0 | score (100=total damage to plant, 0=no damage to plant) [6]: 0 | score (100=total damage to plant, 0=no damage to plant) [7]: 0 | score (100=total damage to plant, 0=no damage to plant) [8]: 0

COc1ccc(Cl)cc1C(F)(F)C(=O)O [Compound 1-305]
score (100=total damage to plant, 0=no damage to plant) [1]: 50 | score (100=total damage to plant, 0=no damage to plant) [2]: 0 | score (100=total damage to plant, 0=no damage to plant) [3]: 0 | score (100=total damage to plant, 0=no damage to plant) [4]: 0 | score (100=total damage to plant, 0=no damage to plant) [5]: 0 | score (100=total damage to plant, 0=no damage to plant) [6]: 0 | score (100=total damage to plant, 0=no damage to plant) [7]: 0 | score (100=total damage to plant, 0=no damage to plant) [8]: 0

COc1cc(C(F)(F)C(=O)O)ccc1C [Compound 1-7]
score (100=total damage to plant, 0=no damage to plant) [1]: 40 | score (100=total damage to plant, 0=no damage to plant) [2]: 0 | score (100=total damage to plant, 0=no damage to plant) [3]: 0 | score (100=total damage to plant, 0=no damage to plant) [4]: 70 | score (100=total damage to plant, 0=no damage to plant) [5]: 0 | score (100=total damage to plant, 0=no damage to plant) [6]: 0 | score (100=total damage to plant, 0=no damage to plant) [7]: 0 | score (100=total damage to plant, 0=no damage to plant) [8]: 30

CCc1c(Cl)cccc1C(F)(F)C(=O)O [Compound 1-275, 2-(3-Chloro-2-ethyl-phenyl)-2,2-difluoro-acetic acid]
score (100=total damage to plant, 0=no damage to plant) [1]: 90 | score (100=total damage to plant, 0=no damage to plant) [2]: 30 | score (100=total damage to plant, 0=no damage to plant) [3]: 0 | score (100=total damage to plant, 0=no damage to plant) [4]: 80 | score (100=total damage to plant, 0=no damage to plant) [5]: 100 | score (100=total damage to plant, 0=no damage to plant) [6]: 80 | score (100=total damage to plant, 0=no damage to plant) [7]: 60 | score (100=total damage to plant, 0=no damage to plant) [8]: 100

C#Cc1c(Cl)cccc1C(F)(F)C(=O)O [Compound 1-291, 2-(3-Chloro-2-ethynyl-phenyl)-2,2-difluoro-acetic acid]
score (100=total damage to plant, 0=no damage to plant) [1]: 100 | score (100=total damage to plant, 0=no damage to plant) [2]: 70 | score (100=total damage to plant, 0=no damage to plant) [3]: 0 | score (100=total damage to plant, 0=no damage to plant) [4]: 80 | score (100=total damage to plant, 0=no damage to plant) [5]: 90 | score (100=total damage to plant, 0=no damage to plant) [6]: 90 | score (100=total damage to plant, 0=no damage to plant) [7]: 80 | score (100=total damage to plant, 0=no damage to plant) [8]: 100

N#Cc1cccc(C(F)(F)C(=O)O)c1 [Compound 1-186]
score (100=total damage to plant, 0=no damage to plant) [1]: 60 | score (100=total damage to plant, 0=no damage to plant) [2]: 0 | score (100=total damage to plant, 0=no damage to plant) [3]: 0 | score (100=total damage to plant, 0=no damage to plant) [4]: 30 | score (100=total damage to plant, 0=no damage to plant) [5]: 10 | score (100=total damage to plant, 0=no damage to plant) [6]: 0 | score (100=total damage to plant, 0=no damage to plant) [7]: 0 | score (100=total damage to plant, 0=no damage to plant) [8]: 10

CC(C)(C)c1ccc(C(F)(F)C(=O)O)cc1 [Compound 1-1]
score (100=total damage to plant, 0=no damage to plant) [1]: 40 | score (100=total damage to plant, 0=no damage to plant) [2]: 0 | score (100=total damage to plant, 0=no damage to plant) [3]: 0 | score (100=total damage to plant, 0=no damage to plant) [4]: 0 | score (100=total damage to plant, 0=no damage to plant) [5]: 0 | score (100=total damage to plant, 0=no damage to plant) [6]: 0 | score (100=total damage to plant, 0=no damage to plant) [7]: 0 | score (100=total damage to plant, 0=no damage to plant) [8]: 20

O=C(O)C(F)(F)c1ccc(OC(F)(F)F)cc1 [Compound 1-3]
score (100=total damage to plant, 0=no damage to plant) [1]: 70 | score (100=total damage to plant, 0=no damage to plant) [2]: 0 | score (100=total damage to plant, 0=no damage to plant) [3]: 0 | score (100=total damage to plant, 0=no damage to plant) [4]: 30 | score (100=total damage to plant, 0=no damage to plant) [5]: 50 | score (100=total damage to plant, 0=no damage to plant) [6]: 0 | score (100=total damage to plant, 0=no damage to plant) [7]: 30 | score (100=total damage to plant, 0=no damage to plant) [8]: 30

COc1ccc(C(F)(F)C(=O)O)cc1 [Compound 1-2]
score (100=total damage to plant, 0=no damage to plant) [1]: 40 | score (100=total damage to plant, 0=no damage to plant) [2]: 0 | score (100=total damage to plant, 0=no damage to plant) [3]: 0 | score (100=total damage to plant, 0=no damage to plant) [4]: 50 | score (100=total damage to plant, 0=no damage to plant) [5]: 0 | score (100=total damage to plant, 0=no damage to plant) [6]: 0 | score (100=total damage to plant, 0=no damage to plant) [7]: 0 | score (100=total damage to plant, 0=no damage to plant) [8]: 0

O=C(O)C(F)(F)c1ccc(OC(F)(F)F)c(Br)c1 [Compound 1-20]
score (100=total damage to plant, 0=no damage to plant) [1]: 70 | score (100=total damage to plant, 0=no damage to plant) [2]: 30 | score (100=total damage to plant, 0=no damage to plant) [3]: 0 | score (100=total damage to plant, 0=no damage to plant) [4]: 0 | score (100=total damage to plant, 0=no damage to plant) [5]: 30 | score (100=total damage to plant, 0=no damage to plant) [6]: 0 | score (100=total damage to plant, 0=no damage to plant) [7]: 0 | score (100=total damage to plant, 0=no damage to plant) [8]: 0

CCOc1ccccc1C(F)(F)C(=O)O [Compound 1-328]
score (100=total damage to plant, 0=no damage to plant) [1]: 80 | score (100=total damage to plant, 0=no damage to plant) [2]: 0 | score (100=total damage to plant, 0=no damage to plant) [3]: 0 | score (100=total damage to plant, 0=no damage to plant) [4]: 60 | score (100=total damage to plant, 0=no damage to plant) [5]: 50 | score (100=total damage to plant, 0=no damage to plant) [6]: 0 | score (100=total damage to plant, 0=no damage to plant) [7]: 0 | score (100=total damage to plant, 0=no damage to plant) [8]: 40

CC(C)Oc1ccccc1C(F)(F)C(=O)O [Compound 1-341]
score (100=total damage to plant, 0=no damage to plant) [1]: 80 | score (100=total damage to plant, 0=no damage to plant) [2]: 20 | score (100=total damage to plant, 0=no damage to plant) [3]: 10 | score (100=total damage to plant, 0=no damage to plant) [4]: 60 | score (100=total damage to plant, 0=no damage to plant) [5]: 30 | score (100=total damage to plant, 0=no damage to plant) [6]: 0 | score (100=total damage to plant, 0=no damage to plant) [7]: 10 | score (100=total damage to plant, 0=no damage to plant) [8]: 30
